In PubChem BioAssay (NCI):
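How tested: cells in 96-well plates exposed to compound for 48 hours at five concentrations. The concentration for 50% growth inhibition is given as GI50. TGI denotes the concentration required for complete inhibition of growth.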

Key:
Test in all cases: DTP human tumour cell line panel, 48 h
[1] = tested on: HCT-15 colon
[2] = tested on: SW-620 colon
[3] = tested on: KM12 colon
[4] = tested on: HCC-2998 colon
[5] = tested on: HOP-92 NSCLC
[6] = tested on: MOLT-4 leukemia
[7] = tested on: NCI-H226 lung
[8] = tested on: A549 NSCLC
[9] = tested on: NCI-H522 lung
[10] = tested on: LOX IMVI melanoma

| Structure (SMILES) | TGI [1] | TGI [2] | TGI [3] | TGI [4] | TGI [5] | TGI [6] | TGI [7] | TGI [8] | TGI [9] | TGI [10] | GI50 [1] | GI50 [2] | GI50 [3] | GI50 [4] | GI50 [6] | GI50 [7] | GI50 [8] | GI50 [9] | GI50 [10] | GI50 [5] |
| --- | --- | --- | --- | --- | --- | --- | --- | --- | --- | --- | --- | --- | --- | --- | --- | --- | --- | --- | --- | --- |
| Cc1c(Cl)ccc2c1NC(=O)C2(O)C1Cc2ccccc2C1=O (stereo unspecified) | > 100 µM | > 100 µM | > 100 µM | > 100 µM | > 100 µM | > 100 µM | > 100 µM | > 100 µM | > 100 µM | > 100 µM | – | – | – | – | – | – | – | – | – | – |
| C=CCN(N=O)C(=O)N(CCC)CCCCC(NC(C)=O)C(=O)NCc1ccccc1 (stereo unspecified) | > 100 µM | > 100 µM | > 100 µM | – | > 100 µM | > 100 µM | > 100 µM | > 100 µM | > 100 µM | > 100 µM | – | – | – | – | – | – | – | – | – | – |
| CN=S(=O)(C[C@]1(O)CC2OC1C1OC(C)(C)OC21)c1ccccc1 (stereo partly specified) | > 100 µM | > 100 µM | > 100 µM | > 100 µM | > 100 µM | > 100 µM | > 100 µM | > 100 µM | > 100 µM | – | – | – | – | – | – | – | – | – | – | – |
| CC1OC(O)CC(OC(=O)c2ccccc2)C1OC(=O)c1ccccc1 (stereo unspecified) | 29.3 µM | 26.7 µM | > 100 µM | > 100 µM | 35 µM | 39 µM | – | > 100 µM | > 100 µM | 23.1 µM | – | – | – | – | – | – | – | – | – | – |
| COc1ccc(OC)c2cc(C3(C)SCCCS3)ccc12 | > 100 µM | > 100 µM | > 100 µM | > 100 µM | – | > 100 µM | – | > 100 µM | – | > 100 µM | – | – | – | – | – | – | – | – | – | – |
| CCOC(=O)c1cc2ncccc2c2ccccc12 | > 100 µM | – | > 100 µM | > 100 µM | > 100 µM | > 100 µM | > 100 µM | > 100 µM | > 100 µM | > 100 µM | – | – | – | – | – | – | – | – | – | – |
| O=C(CC(=O)C(F)(F)F)c1csc2ccccc12 | > 100 µM | > 100 µM | > 100 µM | > 100 µM | – | 72.3 µM | – | > 100 µM | > 100 µM | > 100 µM | – | – | – | – | – | – | – | – | – | – |
| O=C(/C=C\Sc1nccc(C(F)(F)F)n1)c1ccc(Br)cc1 | 70.6 µM | > 100 µM | > 100 µM | 32.6 µM | – | 16.2 µM | 87.8 µM | > 100 µM | 33.2 µM | 27.2 µM | 20.7 µM | 30.5 µM | 38.1 µM | 12.5 µM | 4.44 µM | 26.9 µM | > 100 µM | 15 µM | 13.7 µM | – |
| COc1ccc(-c2nc(-c3nc4cc(C)c(C)cc4[nH]3)cc3c2[nH]c2ccccc23)cc1 | 72.5 µM | > 100 µM | 24.9 µM | 94.8 µM | – | 6.46 µM | 54.8 µM | > 100 µM | 13.5 µM | 11.2 µM | 2.68 µM | 7.54 µM | 3.5 µM | 3.88 µM | 2.37 µM | 3.32 µM | 3.94 µM | 3 µM | 3.08 µM | – |
| Nc1nc(N)c(-c2ccc(Cl)cc2)c(CCC(=O)Nc2cccc(C(F)(F)F)c2)n1 | > 100 µM | > 100 µM | > 100 µM | > 100 µM | – | > 100 µM | > 100 µM | > 100 µM | > 100 µM | > 100 µM | – | – | – | – | – | – | – | – | – | – |
| C/C(=C\c1c[nH]c2ccccc12)[N+](=O)[O-] | 13.7 µM | 26 µM | 15.6 µM | 23 µM | – | 5.83 µM | 30.6 µM | 21.4 µM | 11.6 µM | 4.86 µM | 2.48 µM | 5.78 µM | 3.98 µM | 10.5 µM | 2.19 µM | 13.3 µM | 5.85 µM | 3.19 µM | 1.89 µM | – |
| COc1ccc2c(c1)[n+]([O-])c(-c1nc3ccccc3s1)c(N)[n+]2[O-] | > 100 µM | > 100 µM | > 100 µM | – | > 100 µM | > 100 µM | > 100 µM | > 100 µM | > 100 µM | – | – | – | – | – | – | – | – | – | – | – |
| CC[C@H](C)C(=O)O[C@H]1CCC=C2C=C[C@H](C)C(CCC3C[C@@H](O)CC(=O)O3)[C@H]21 (stereo partly specified) | > 100 µM | > 100 µM | > 100 µM | > 100 µM | 5.59 µM | > 100 µM | 46 µM | > 100 µM | – | > 100 µM | 4.83 µM | 12 µM | 45.6 µM | 33 µM | – | 6.2 µM | 17.7 µM | – | 0.965 µM | 0.236 µM |
| O=C(CC1(O)C(=O)Nc2c(Cl)cc(Cl)cc21)c1ccc2ccccc2c1 (stereo unspecified) | 14.2 µM | 14.7 µM | 18.8 µM | – | 36.2 µM | 27.8 µM | – | 18.2 µM | 10.9 µM | 24.3 µM | – | – | – | – | – | – | – | – | – | – |
| CCOC(=O)C1=C(C)N(NC(=O)c2ccccc2)C2(O)CCCC12C(=O)OCC (stereo unspecified) | > 100 µM | > 100 µM | > 100 µM | > 100 µM | – | > 100 µM | > 100 µM | > 100 µM | > 100 µM | > 100 µM | – | – | – | – | – | – | – | – | – | – |
| O=C(C=Nc1ccccc1C(=O)[O-])c1cccs1.O=C(C=Nc1ccccc1C(=O)[O-])c1cccs1.[Cu+2] | > 100 µM | > 100 µM | > 100 µM | > 100 µM | > 100 µM | > 100 µM | – | > 100 µM | > 100 µM | > 100 µM | – | – | – | – | – | – | – | – | – | – |
| Cc1c(CCl)c(=O)oc2c(C)c3occ(CCl)c(=O)c3cc12 | 64.6 µM | > 100 µM | > 100 µM | > 100 µM | – | 22.8 µM | 48.7 µM | > 100 µM | 30.5 µM | 30.8 µM | – | – | – | – | – | – | – | – | – | – |
| CCCCCCCCCC(=O)OCC1OC(n2cc(F)c(=O)[nH]c2=O)C(N)C(OC(=O)CCCCCCCCC)C1O (stereo unspecified) | 34.7 µM | 31.8 µM | 41.2 µM | 33.3 µM | 37 µM | 32.7 µM | – | 34.1 µM | 30.1 µM | 30.1 µM | – | – | – | – | – | – | – | – | – | – |
| CC1(C)C2CCC13C(=O)C1OC3(C2)C2C(=O)c3c(O)ccc(O)c3C(=O)C12 (stereo unspecified) | > 54 µM | – | > 100 µM | > 100 µM | 46.8 µM | > 46.6 µM | > 100 µM | > 100 µM | > 100 µM | > 100 µM | 18.5 µM | – | > 50.4 µM | 42.9 µM | 5.93 µM | > 79 µM | 46.6 µM | 38.8 µM | 32.2 µM | 17.8 µM |
